We go through 4 compounds from publication PMC10616419 (The Journal of Biological Chemistry, 2023).

Several values for one entry are separate records, joined by “and”; a condition that tells them apart may be missing. Equal values may be shown once. Read-outs that look alike come from different tables or passages of the source.

In test [1] the target is T1, YYAA concatemer rat TRPV1 (two Y511A mutant subunits) (Rattus norvegicus, UniProt O35433, Y511A).
T1 construct: expressed in transfected cells; host or cells: TSA201 (HEK293T) cells, transient transfection; excised inside-out patches
T1 sequence (O35433 whole entry, stated change not applied): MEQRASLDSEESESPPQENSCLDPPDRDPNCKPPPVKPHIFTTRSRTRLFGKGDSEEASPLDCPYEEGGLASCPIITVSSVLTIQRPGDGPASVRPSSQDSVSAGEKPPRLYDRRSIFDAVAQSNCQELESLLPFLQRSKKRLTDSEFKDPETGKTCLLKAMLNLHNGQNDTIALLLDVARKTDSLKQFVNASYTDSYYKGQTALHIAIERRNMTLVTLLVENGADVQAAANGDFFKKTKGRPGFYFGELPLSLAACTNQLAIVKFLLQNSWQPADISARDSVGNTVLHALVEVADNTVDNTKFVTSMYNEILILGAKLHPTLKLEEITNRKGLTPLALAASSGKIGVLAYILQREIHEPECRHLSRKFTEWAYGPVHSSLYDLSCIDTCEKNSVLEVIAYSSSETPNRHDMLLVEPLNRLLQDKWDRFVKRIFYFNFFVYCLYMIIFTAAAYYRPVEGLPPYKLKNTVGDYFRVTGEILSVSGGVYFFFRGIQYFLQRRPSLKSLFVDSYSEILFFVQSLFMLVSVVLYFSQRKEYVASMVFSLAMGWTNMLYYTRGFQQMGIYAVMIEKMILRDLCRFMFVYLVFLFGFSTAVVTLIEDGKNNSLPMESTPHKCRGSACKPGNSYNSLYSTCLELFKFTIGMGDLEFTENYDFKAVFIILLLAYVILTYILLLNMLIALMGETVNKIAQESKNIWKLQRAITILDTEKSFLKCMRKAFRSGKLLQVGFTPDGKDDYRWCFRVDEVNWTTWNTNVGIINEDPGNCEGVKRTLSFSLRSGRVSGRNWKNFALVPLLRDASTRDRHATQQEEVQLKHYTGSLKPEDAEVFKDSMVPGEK
T1 sequence (O35433 whole entry, stated change not applied): as above
T1 sequence (O35433 whole entry Y511A): as the sequence (O35433 whole entry, stated change not applied) above, with Y511A counted along it
T1 sequence (O35433 whole entry Y511A): as the sequence (O35433 whole entry, stated change not applied) above, with Y511A counted along it
Type of test: cell-based.

For test [2], the target named is T2, Y512A mutant mouse TRPV1 (Mus musculus, UniProt Q704Y3, Y512A).
T2 construct: expressed in transfected cells; host or cells: TSA201 (HEK293T) cells, transient transfection
T2 sequence (Q704Y3 whole entry Y512A): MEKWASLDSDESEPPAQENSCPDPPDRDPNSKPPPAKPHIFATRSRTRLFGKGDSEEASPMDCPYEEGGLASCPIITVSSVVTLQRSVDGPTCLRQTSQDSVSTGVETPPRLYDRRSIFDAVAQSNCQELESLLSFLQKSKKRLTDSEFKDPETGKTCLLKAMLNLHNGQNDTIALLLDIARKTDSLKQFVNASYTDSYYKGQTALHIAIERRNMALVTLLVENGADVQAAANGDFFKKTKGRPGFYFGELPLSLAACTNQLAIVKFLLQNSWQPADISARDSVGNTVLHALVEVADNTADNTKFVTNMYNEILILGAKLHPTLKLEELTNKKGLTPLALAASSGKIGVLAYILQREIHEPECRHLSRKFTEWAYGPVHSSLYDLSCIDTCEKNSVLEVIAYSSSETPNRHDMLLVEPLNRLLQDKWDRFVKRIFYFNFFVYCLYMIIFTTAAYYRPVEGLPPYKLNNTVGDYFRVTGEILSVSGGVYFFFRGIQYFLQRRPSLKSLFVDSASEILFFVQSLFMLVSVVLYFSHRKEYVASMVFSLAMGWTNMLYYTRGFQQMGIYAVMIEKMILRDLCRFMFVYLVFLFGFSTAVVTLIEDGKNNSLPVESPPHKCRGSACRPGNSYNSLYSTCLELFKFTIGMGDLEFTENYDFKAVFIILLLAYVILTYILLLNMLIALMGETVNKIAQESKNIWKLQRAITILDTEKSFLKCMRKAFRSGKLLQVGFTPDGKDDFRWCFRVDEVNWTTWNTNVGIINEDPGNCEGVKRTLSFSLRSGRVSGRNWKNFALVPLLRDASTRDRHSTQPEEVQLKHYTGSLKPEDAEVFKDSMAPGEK
Description: cell-based. It counts as cell-based.

In test [3] the target is T3, Y511A mutant subunit of rat TRPV1 (YYYA and YYAA concatemers) (Rattus norvegicus, UniProt O35433, Y511A).
T3 construct: expressed in transfected cells; host or cells: TSA201 (HEK293T) cells, transient transfection
T3 sequence (O35433 whole entry Y511A): as the sequence (O35433 whole entry, stated change not applied) above, with Y511A counted along it
T3 sequence (O35433 whole entry partner): as the sequence (O35433 whole entry, stated change not applied) above
It counts as cell-based.

Test [4] deals with TRPV1. As to conditions: cited from earlier work.
The next test concerns the target T4, wildtype mouse TRPV1 (Mus musculus, UniProt Q704Y3).
T4 construct: expressed in transfected cells; host or cells: TSA201 (HEK293T) cells, transient transfection
In words: cell-based. Type of test: cell-based.

In test [5] the test system is TRPV1. It counts as cell-based.
The target of test [6] is T5, YYYA concatemer rat TRPV1 (single Y511A mutant binding site) (Rattus norvegicus, UniProt O35433, Y511A).
T5 construct: expressed in transfected cells; host or cells: TSA201 (HEK293T) cells, transient transfection; excised inside-out patches
T5 sequence (O35433 whole entry, stated change not applied): as above
T5 sequence (O35433 whole entry, stated change not applied): as above
T5 sequence (O35433 whole entry, stated change not applied): as above
T5 sequence (O35433 whole entry Y511A): as the sequence (O35433 whole entry, stated change not applied) above, with Y511A counted along it
It counts as cell-based.

Test [7] deals with T2, Y512A mutant mouse TRPV1. Particulars: cited from earlier work.
The test system of test [8] is Y511A mutant subunit of rat TRPV1 (YYYA and YYAA concatemers). Type of test: cell-based.
The target in test [9] is T6, wildtype (Y) subunit of rat TRPV1 concatemers (Rattus norvegicus, UniProt O35433).
T6 construct: expressed in transfected cells; host or cells: TSA201 (HEK293T) cells, transient transfection
T6 sequence (O35433 whole entry): as the sequence (O35433 whole entry, stated change not applied) above
Type of test: cell-based.

Test [10] addresses T7, Y511A (A) mutant subunit of rat TRPV1 concatemers (Rattus norvegicus, UniProt O35433, Y511A).
T7 construct: expressed in transfected cells; host or cells: TSA201 (HEK293T) cells, transient transfection
It counts as cell-based.

The target in test [11] is T5, YYYA concatemer rat TRPV1 (single Y511A mutant binding site). Particulars: cited from earlier work.
In test [12] the target is TRPV1 (Rattus norvegicus, UniProt O35433, Y511A). As to conditions: cited from earlier work.
TRPV1 (Rattus norvegicus, UniProt O35433, Y511A), sequence (O35433 whole entry Y511A): as the sequence (O35433 whole entry, stated change not applied) above, with Y511A counted along it
In test [13] the target is TRPV1 (Rattus norvegicus, UniProt O35433). Particulars: cited from earlier work.
TRPV1 (Rattus norvegicus, UniProt O35433), sequence (O35433 whole entry): as the sequence (O35433 whole entry, stated change not applied) above

T4 sequence (Q704Y3 whole entry): as the sequence (Q704Y3 whole entry Y512A) above, with A512Y counted along it
T7 sequence (O35433 whole entry Y511A): as the sequence (O35433 whole entry, stated change not applied) above, with Y511A counted along it

Consider 6′-iodo-RTX [6′-iRTX], for which, in [1], the “L2, equilibrium constant before capsaicin” value is given as 0.01 and the “L2, equilibrium constant before capsaicin application” value is 0.008. Moreover, the binding reversibility result at Y512A mutant mouse TRPV1 [2] is given as “could be washed off”. In test [3], the L is on record as 0.01, the “L with three prebound 6′-iRTX” value is 0.02 and the “L with two prebound 6′-iRTX” value is 0.02. The agonist type result in the test with TRPV1 [4] was “weak partial agonist”. At wildtype mouse TRPV1, the binding reversibility entry is “binds irreversibly” and the “channel activity produced on perfusion” value is “weak channel activities”. The agonist type entry with TRPV1 [5] is given as “weak agonist”. For the same compound, in test [6], the “channel activation with three molecules bound” value was “barely activated”.

As a reminder, the EC50 is the concentration giving half of the maximal effect. For orientation: Hill slope means a measure of the steepness of the concentration-response curve. By Kd is commonly meant the concentration at which binding is half-saturated. Read a high Kd as lower affinity. In the case of `COc1cc(CNC(=O)CCCC/C=C/C(C)C)ccc1O` [capsaicin], the EC50 on Y512A mutant mouse TRPV1 [7] is 13 µM. Further, in test [1], the Hill slope came to 0.88; the “Po reached on application of capsaicin” value is listed as roughly 100%; the “a factor (cooperativity between the two capsaicin binding steps; 0.25 = independent)” value came to 0.27; the cooperative factor f is 8.9 and 11.8. Moreover, on Y512A mutant mouse TRPV1 [2], the midpoint of the response, the EC50, lay at 22 µM; the affinity, expressed as Kd, was 52.6 µM; the “slope factor (Hill function)” value came to 2.3. Besides, the cooperative factor f in test [3] is 12.1 and 8.9. Moreover, in test [8], the “capsaicin association constant K” value was determined as 49000 M⁻¹ and the cooperative factor f stood at 8.0. The same compound returned a KY in test [9] of 2.4e+06 M⁻¹. Besides, at wildtype mouse TRPV1, the midpoint of the response, the EC50, lay at 0.11 µM; the affinity, expressed as Kd, was 0.244 µM; the “activation after perfusing 6′-iRTX” value was “lost its activation effect”; the “slope factor (Hill function)” value came to 1.3. Also, the fA in test [10] is given as 12.9. The compound also registered a Hill slope in [6] of 0.96.

Consider `NCCOB(c1ccccc1)c1ccccc1` [2-APB, 2-aminoethoxydiphenyl borate], for which the “activation after perfusing 6′-iRTX” value at wildtype mouse TRPV1 is “could still activate these channels”.

Turning to `C=C(C)[C@]12C[C@@H](C)[C@@]34O[C@](Cc5ccccc5)(O[C@@H]1[C@@H]3C=C(COC(=O)Cc1ccc(O)c(OC)c1)C[C@]1(O)C(=O)C(C)=C[C@@H]41)O2` [RTX, resiniferatoxin], in [1], the “L2, equilibrium constant before capsaicin” value is 0.97; the “L2, equilibrium constant before capsaicin application” value was 0.96; the “initial Po level with wildtype binding sites preloaded” value is on record as “approximately 50%”. Further, the “Po with three RTX molecules bound” value in test [11] is on record as “approximately 99%”. In test [3], the L worked out at 0.96 and the “L with two prebound RTX” value was determined as 0.94. In addition, the binding reversibility result at TRPV1 [12] is “can be washed off”. For the same compound, on TRPV1 [13], the binding reversibility result is reported as “binds irreversibly”. Also, the agonist type entry with TRPV1 [5] is on record as “full agonist”.
